These are literature values, as cited in publication PMC4027949 (ACS Chemical Biology, 2014).

For one data set, the system named is PI3K. The note with it: read-out: IC50 PI3K; Ibrutinib comparison values.
For a further data set, the system named is P38. The note with it: read-out: IC50 P38; Ibrutinib comparison values.
The next data set has as its target PDGFRa (Homo sapiens, UniProt P16234). The note with it: read-out: IC50 PDGFRa; Ibrutinib comparison values.

Sequence of PDGFRa (P16234 24-1089, species assumed): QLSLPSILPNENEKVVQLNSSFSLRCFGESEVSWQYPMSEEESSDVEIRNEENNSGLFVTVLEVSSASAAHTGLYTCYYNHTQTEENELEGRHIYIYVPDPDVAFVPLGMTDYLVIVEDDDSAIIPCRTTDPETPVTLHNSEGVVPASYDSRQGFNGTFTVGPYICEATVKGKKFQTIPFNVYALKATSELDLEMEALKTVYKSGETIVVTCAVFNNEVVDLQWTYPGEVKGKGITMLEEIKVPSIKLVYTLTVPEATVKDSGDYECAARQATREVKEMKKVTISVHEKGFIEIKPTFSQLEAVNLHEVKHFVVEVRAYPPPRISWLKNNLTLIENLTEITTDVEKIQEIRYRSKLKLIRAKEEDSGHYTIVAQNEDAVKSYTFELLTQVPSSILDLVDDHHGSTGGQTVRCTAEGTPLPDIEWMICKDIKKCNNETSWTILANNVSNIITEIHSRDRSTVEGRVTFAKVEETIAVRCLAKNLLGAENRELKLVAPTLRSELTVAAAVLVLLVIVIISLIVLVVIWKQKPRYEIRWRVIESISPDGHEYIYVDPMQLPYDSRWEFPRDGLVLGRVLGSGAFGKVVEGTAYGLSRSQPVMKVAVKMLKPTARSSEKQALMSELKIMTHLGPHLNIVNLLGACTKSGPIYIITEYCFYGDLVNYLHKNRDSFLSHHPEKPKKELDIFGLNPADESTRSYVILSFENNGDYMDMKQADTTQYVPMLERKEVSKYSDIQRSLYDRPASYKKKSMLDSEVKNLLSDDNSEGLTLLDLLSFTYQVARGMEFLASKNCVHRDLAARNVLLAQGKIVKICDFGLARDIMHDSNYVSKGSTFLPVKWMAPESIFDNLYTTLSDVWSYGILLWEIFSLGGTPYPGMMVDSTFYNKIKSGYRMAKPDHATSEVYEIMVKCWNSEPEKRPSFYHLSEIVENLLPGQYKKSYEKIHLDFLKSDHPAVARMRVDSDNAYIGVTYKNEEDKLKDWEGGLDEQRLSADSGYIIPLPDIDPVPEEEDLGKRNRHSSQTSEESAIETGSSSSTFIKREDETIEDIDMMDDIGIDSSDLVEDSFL

The term IC50 denotes the point on the concentration scale where inhibition reaches its midpoint. Turning to `C=CC(=O)N1CCC[C@@H](n2nc(-c3ccc(Oc4ccccc4)cc3)c3c(N)ncnc32)C1` [Ibrutinib], the IC50 is above 10 µM in the data set with PI3K, above 10 µM in the data set on P38 and 0.718 µM at PDGFRa.
